Experimental data as given in paper PMC11879040, “Advancing systemic toxicity risk assessment: Evaluation of a NAM-based toolbox approach” (Toxicological Sciences, 2024).
Where a name gives a salt, the structure may show the parent alone. Read-outs that look alike come from different tables or passages of the source.

Key:
[1] = system: HepG2 cells; assay: High-throughput transcriptomics (HTTr, TempO-Seq), HepG2, 24 h; format: cell-based, human
Procedure: (§1) HepG2, HepaRG, and MCF7 cells were treated with each compound for 24 h across a dose range of 7 concentrations and lysed using TempO-Seq lysis buffer (BioSpyder Technologies, proprietary kit, see [Middleton et al. 2022] for method details). Sequencing was performed using TempO-Seq (BioClavis) version 2 of the human whole transcriptome panel and analyzed as described previously in Middleton et al.

[2] = system: HepaRG cells; assay: High-throughput transcriptomics (HTTr, TempO-Seq), HepaRG, 24 h; format: cell-based, human
Procedure: as §1

[3] = system: MCF7 cells; assay: High-throughput transcriptomics (HTTr, TempO-Seq), MCF7, 24 h; format: cell-based, human
Procedure: as §1

[4] = system: 63 targets with known safety liabilities; assay: In vitro pharmacological profiling (IPP) panel, screening at 10 or 100 µM and dose response, minimum IC50/AC50; format: biochemical; settings: lowest AC50 across IPP panel (systemic targets); cell_type -; read-out: ipp_lowest_ac50_systemic PoD
[5] = system: Thyroid hormone receptor alpha, THRA (h); assay: IPP THRA coactivator recruitment (agonist); format: biochemical, human; settings: agonist, T3
[6] = system: Tubulin (r); assay: IPP Tubulin binding; parameters: species or system rat; settings: ligand/control Colchicine
[7] = system: HepG2 cells; assay: Cell stress panel (CSP), 24 h, 8 concentrations, BIFROST global PoD; format: cell-based; settings: HepG2; cell stress panel PoD
Procedure: Compounds were tested using the previously developed cell stress panel ([Hatherell et al. 2020]) and the expanded biomarker panel outlined in Middleton et al. HepG2 cells were treated with all compounds for 24 h across 8 concentrations prior to biomarker analysis. The same plate layout and number of replicates (3 biological and 2 technical) were used as previously for each assay within the panel.

[8] = system: Glutamate receptor ionotropic NMDA 1 non-selective, GRIN1 (r)
[9] = human
[10] = system: Potassium Voltage-Gated Channel Kv non-selective, KCNQ1 (r); assay: IPP KCNQ1 binding (antagonist radioligand); parameters: species or system rat; settings: IPP screening at 100 uM; control α-dendrotoxin
[11] = system: Gamma-aminobutyric acid receptor subunit alpha-1 BZD site, GABRA1A (r); format: binding, rat; settings: IPP screening at 100 uM; control diazepam
[12] = system: Sodium channel protein type 5 subunit alpha (site 2), SCN5A (r); format: binding, rat; settings: IPP screening at 100 uM; control veratridine
[13] = target: T1, Adenosine receptor A2a, ADORA2A (h) (Homo sapiens, UniProt P29274); assay: IPP ADORA2A binding (agonist radioligand); settings: IPP screening at 100 uM; control NECA
T1 construct: purchased Eurofins Cerep (SafetyScreen44-based IPP panel)
T1 sequence (P29274 whole entry): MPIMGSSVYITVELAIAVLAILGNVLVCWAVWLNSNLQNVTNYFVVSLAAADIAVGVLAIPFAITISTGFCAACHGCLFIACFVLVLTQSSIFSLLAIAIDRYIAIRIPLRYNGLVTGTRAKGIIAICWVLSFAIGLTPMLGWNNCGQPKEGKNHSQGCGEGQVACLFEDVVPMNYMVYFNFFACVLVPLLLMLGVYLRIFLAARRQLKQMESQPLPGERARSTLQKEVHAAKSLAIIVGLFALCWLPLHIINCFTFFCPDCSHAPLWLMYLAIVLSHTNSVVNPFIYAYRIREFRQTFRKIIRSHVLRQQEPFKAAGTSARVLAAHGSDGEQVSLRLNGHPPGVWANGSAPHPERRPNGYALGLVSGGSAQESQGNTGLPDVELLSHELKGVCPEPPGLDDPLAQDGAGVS

[14] = Assignment of risk classifications to benchmark chemical-exposure scenarios; settings: Dermal; […]; Body lotion; Exp1; from table S1
[15] = target: T2, Estrogen receptor, ER1 (h) (Homo sapiens, UniProt P03372); assay: IPP ER1 coactivator recruitment (agonist); format: biochemical; settings: 100 uM, estriol, * denotes assay interference (2-Amino-6-chloro-4-nitrophenol, HC Red 3)
T2 construct: purchased Eurofins Cerep (SafetyScreen44-based IPP panel)
T2 sequence (P03372 1-595): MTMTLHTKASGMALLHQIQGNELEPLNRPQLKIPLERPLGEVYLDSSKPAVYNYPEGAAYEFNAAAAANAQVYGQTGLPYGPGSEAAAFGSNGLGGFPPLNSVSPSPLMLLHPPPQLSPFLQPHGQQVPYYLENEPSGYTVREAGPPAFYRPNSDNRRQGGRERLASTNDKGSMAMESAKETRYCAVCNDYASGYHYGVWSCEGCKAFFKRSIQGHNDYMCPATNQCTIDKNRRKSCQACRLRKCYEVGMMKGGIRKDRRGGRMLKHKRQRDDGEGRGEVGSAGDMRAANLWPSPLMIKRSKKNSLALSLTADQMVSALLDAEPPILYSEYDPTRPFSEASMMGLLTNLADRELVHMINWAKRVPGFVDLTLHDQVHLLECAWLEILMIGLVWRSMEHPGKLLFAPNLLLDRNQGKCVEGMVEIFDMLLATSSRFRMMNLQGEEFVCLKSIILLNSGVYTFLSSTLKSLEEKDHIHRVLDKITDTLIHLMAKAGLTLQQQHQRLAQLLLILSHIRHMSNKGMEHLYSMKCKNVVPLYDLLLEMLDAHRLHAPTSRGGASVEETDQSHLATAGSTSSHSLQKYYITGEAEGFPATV

[16] = target: T2, Estrogen receptor, ER1 (h); assay: IPP ER1 coactivator recruitment (antagonist); format: biochemical; settings: 100 uM, estriol, * denotes assay interference (2-Amino-6-chloro-4-nitrophenol, HC Red 3)
[17] = target: Potassium voltage-gated channel subfamily H member 2 hERG, KCNH2 (h) (Homo sapiens, UniProt Q12809); settings: human, 100 µM
Chain of Potassium voltage-gated channel subfamily H member 2 hERG, KCNH2 (h) (Q12809 whole entry): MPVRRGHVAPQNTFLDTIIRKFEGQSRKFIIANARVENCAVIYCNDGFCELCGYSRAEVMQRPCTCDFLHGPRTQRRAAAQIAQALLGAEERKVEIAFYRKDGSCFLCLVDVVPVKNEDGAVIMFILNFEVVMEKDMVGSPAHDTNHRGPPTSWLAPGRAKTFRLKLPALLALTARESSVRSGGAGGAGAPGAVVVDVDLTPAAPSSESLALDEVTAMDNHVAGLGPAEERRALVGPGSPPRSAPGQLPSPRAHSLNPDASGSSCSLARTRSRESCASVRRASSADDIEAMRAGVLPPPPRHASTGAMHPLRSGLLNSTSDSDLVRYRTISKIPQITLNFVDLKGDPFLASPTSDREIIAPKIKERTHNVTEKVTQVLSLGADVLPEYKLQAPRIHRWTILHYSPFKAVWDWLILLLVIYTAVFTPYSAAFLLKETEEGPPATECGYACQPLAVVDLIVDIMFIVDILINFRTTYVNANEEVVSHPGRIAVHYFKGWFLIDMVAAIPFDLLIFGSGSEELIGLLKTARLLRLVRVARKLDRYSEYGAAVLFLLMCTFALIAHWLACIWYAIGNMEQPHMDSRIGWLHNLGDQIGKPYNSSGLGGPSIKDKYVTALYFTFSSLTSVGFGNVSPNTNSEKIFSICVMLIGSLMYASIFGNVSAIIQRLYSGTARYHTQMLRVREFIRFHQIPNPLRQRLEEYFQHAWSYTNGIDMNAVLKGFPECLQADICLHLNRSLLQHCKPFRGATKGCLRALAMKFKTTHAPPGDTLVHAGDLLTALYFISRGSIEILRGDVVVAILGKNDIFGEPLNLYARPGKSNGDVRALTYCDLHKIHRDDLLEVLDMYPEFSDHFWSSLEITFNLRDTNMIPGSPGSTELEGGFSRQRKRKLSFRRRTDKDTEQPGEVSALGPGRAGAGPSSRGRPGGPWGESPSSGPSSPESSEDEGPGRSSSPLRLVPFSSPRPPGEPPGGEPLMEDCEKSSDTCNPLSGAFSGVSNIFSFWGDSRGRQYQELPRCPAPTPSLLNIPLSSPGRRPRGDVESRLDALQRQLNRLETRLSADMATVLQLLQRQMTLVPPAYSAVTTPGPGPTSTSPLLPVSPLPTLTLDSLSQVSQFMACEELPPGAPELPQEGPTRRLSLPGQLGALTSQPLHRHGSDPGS

[18] = system: rat; settings: cited from earlier work
[19] = HepG2, HTTr minimum pathway BMD(L)
[20] = HepaRG, HTTr minimum pathway BMD(L)
[21] = MCF-7, HTTr minimum pathway BMD(L)
[22] = 100 uM, * denotes assay interference (2-Amino-6-chloro-4-nitrophenol, HC Red 3)
[23] = IPP screening at 100 uM, control CGS 19755

| SMILES | pod_httr_bifrost PoD ([1]; HepG2, HTTr BIFROST PoD) [µM] | podl_path_minbmd PoD [1, 19] [µM] | pod_httr_bifrost PoD ([2]; HepaRG, HTTr BIFROST PoD) [µM] | podl_path_minbmd PoD [2, 20] [µM] | pod_httr_bifrost PoD ([3]; MCF-7, HTTr BIFROST PoD) [µM] | podl_path_minbmd PoD [3, 21] [µM] | AC50 [4] [nM] | pod_cell_stress PoD [7] [µM] | also measured |
| --- | --- | --- | --- | --- | --- | --- | --- | --- | --- |
| CCCCOC(=O)c1ccc(O)cc1 [Butyl_4-hydroxybenzoate] | 10.9882 | 46.8548 | 66.4882 | 120 | 0.02978 | 0.1304 | 6580 |  |  |
| COc1ccc(O)c(C(C)(C)C)c1 [Butylated_Hydroxyanisole] | 9.643 | 21.4191 | 6.323 | 13.7136 | 8.844 | 25.2807 | 600 |  |  |
| O=C(O)COCCN1CCN(C(c2ccccc2)c2ccc(Cl)cc2)CC1 (centres unmarked) [Cetirizine dihydrochloride, (2-{4-[(4-Chlorophenyl)(phenyl)methyl]piperazin-1-yl}ethoxy)acetic acid--hydrogen chloride (1/2)] |  |  |  |  |  |  |  | 67.3241 | IPP screening %, Coactivator recruitment ([5]; 10 uM): 2.0%; IPP screening %, Specific binding ([6]; 10 uM): 14.0%; Specific binding [8]: 1.4%; risk [9]: 1 |
| O=C(O)COCCN1CCN(C(c2ccccc2)c2ccc(Cl)cc2)CC1 (centres unmarked) [Cetirizine_dihydrochloride] | 9.8579 | 120 | 0.6956 | 13.467 | 3.21 | 78.4644 | 81 |  |  |
| O=CCCCC=O [Glutaraldehyde Solution] |  |  |  |  |  |  |  | 37.601 |  |
| O=CCCCC=O [Glutaraldehyde_Solution] | 19.467 | 50 | 136.152 | 500 | 0.2467 | 50 |  |  |  |
| Nc1ccc(NCCO)c([N+](=O)[O-])c1 [HC_Red_3] | 0.3766 | 1.617 | 0.1851 | 0.9652 | 0.8099 | 25.6755 | 2170 |  |  |
| NNc1nncc2ccccc12 [Hydralazine_hydrochloride] | 1.708 | 20.4222 | 1.593 | 111.897 | 0.3784 | 100.098 | 1200 |  |  |
| CCN(CC)CCNC(=O)c1cc(Cl)c(N)cc1OC [Metclopramide] | 16.0473 | 79.9772 | 30.9764 | 92.5373 | 18.3439 | 87.28 | 46 | 73.2603 |  |
| CN(C)[C@@H]1C(O)=C(C(N)=O)C(=O)[C@@]2(O)C(O)=C3C(=O)c4c(O)cccc4[C@@](C)(O)[C@H]3[C@H](O)[C@@H]12 [Oxytetracycline_hydrochloride] | 1.6523 | 24.772 | 4.2 | 50.4384 | 0.6783 | 10.8661 |  | 2.447 |  |
| CC(C)(CO)C(O)C(=O)NCCCO (centres unmarked) [Panthenol, 2,4-Dihydroxy-N-(3-hydroxypropyl)-3,3-dimethylbutanamide] | 7221.82 | 20000 | 65.9596 | 4552.59 | 767.225 | 20000 |  | 18298.9 | Specific binding [10]: -4.3%; Specific binding [11]: -1.9%; Specific binding [12]: 27.9%; Specific binding [13]: 7.3%; IPP screening %, Coactivator recruitment [5, 22]: 2.0%; IPP screening %, Specific binding ([6]; 100 uM): -5%; HepaRG HTTr: concentration of single responding probe ([2]; BIFROST probe-level PoD): < 100 µM; HepaRG HTTr: next lowest probe ([2]; BIFROST probe-level PoD): 5100 µM; Specific binding [8, 23]: 0.2%; risk [14]: 0 |
| O=S(=O)([O-])NC1CCCCC1.[Na+] [Sodium_Cyclamate] |  |  |  |  |  |  |  |  | pod_httr_bifrost PoD [1]: 12.9839 µM; podl_path_minbmd PoD [1]: 1200 µM; pod_httr_bifrost PoD [2]: 485.622 µM; podl_path_minbmd PoD [2]: 442.002 µM; pod_httr_bifrost PoD [3]: 202.953 µM; podl_path_minbmd PoD [3]: 1200 µM |
| O=C(O)c1ccc2c(c1)C(=O)OC2=O [Trimellitic anhydride, 1,3-Dioxo-1,3-dihydro-2-benzofuran-5-carboxylic acid] |  |  |  |  |  |  |  |  | Specific binding [10]: -6.6%; Specific binding [11]: 12.5%; Specific binding [12]: 30.3%; Specific binding [13]: 6.5%; IPP screening %, Coactivator recruitment [15]: 1.0%; IPP screening %, Coactivator recruitment [16]: -1.0%; IPP screening %, Coactivator recruitment [5, 22]: 1.0%; IPP screening %, Specific binding ([6]; 100 uM): 2%; Specific binding [8, 23]: 9.9%; IPP screening %, Specific binding [17]: -16.7%; PoD (NOEL) ([18]; rat, repeat dose, ref ECHA dossier): 300 mg/kg bw/day; NOAEL, dietary intake ([18]; repeat dose, before adjustment, ref ECHA dossier): Adjusted from NOAEL of 10000ppm dietary intake - ECHA dossier. Other studies referenced are for trimellitic acid. |
| O=C(O)c1ccc2c(c1)C(=O)OC2=O [Trimellitic_anhydride] | 404.103 | 1078.54 | 236.503 | 100.049 | 423.806 | 854.401 |  | 34.7606 |  |
| COc1ccc(CCN(C)CCCC(C#N)(c2ccc(OC)c(OC)c2)C(C)C)cc1OC (centres unmarked) [Verapamil_hydrochloride] | 1.132 | 8.538 | 1.688 | 24.0605 | 0.3576 | 10.6709 | 17 |  |  |
| NC1CCCCC1 [cyclohexylamine] |  |  |  |  |  |  |  |  | NOAEL ([18]; 90 day rat study, cyclohexylamine administered, ref [19-22]): 100 mg/kg bw/day; dose at which testicular toxicity was observed ([18]; testicular atrophy and giant cell formation, ref [19-22]): ≥ 200 mg/kg bw/day |
